We go through five compounds from patent publication US9855248B2, “Polymorph of itraconazole with improved pharmaceutical properties” (The Chinese University of Hong Kong, priority 2016, dated 2018).

The conditions of data set [1]: pH 7.4; cited from earlier work.
Data set [2] can be described thus: Powder dissolution study in 50% v/v aqueous ethanol. The data set is classed as physicochemical. The settings on record: 25° C.; for solid form of undissolved solid at end of dissolution study (DSC and XRPD): 3-day dissolution study; for initial dissolution rate (in words): initial time period. Here is the method: As an alternative means to compare the solubilities of the three ITZ polymorphs, the dissolution-time profiles of these crystal forms were determined in the same solvent system. According to the Noyes Whitney equation, the dissolution rate per unit surface area of a drug solid in contact with the dissolution medium is directly proportional to its solubility under sink conditions at a constant temperature. Thus the amount of drug dissolved initially over a defined time period can provide an indirect measure of the drug solubility. […] The concentrations of Form I and Form II in dissolution media increased gradually with time and plateaued off after ˜10 h. The maximum drug concentration attained was 2-3 fold higher for Form II than for Form I, consistent with the equilibrium solubility data.
All powder samples for dissolution testing were first sieved through an 80 mesh-screen (180 μm), and only particles with sizes smaller than 180 m were used. An accurately weighed amount (20±0.2 mg) of each ITZ polymorph or ITZ amorphous powder (made by rapid melt quenching) was dispersed in 25 ml 50% v/v aqueous ethanol with continuous stirring at 100 rpm in a round bottom flask, equilibrated inside a temperature-controlled incubator (Lovibond TC 135S, Tintometer GmbH, Dortmund, Germany) at 25° C. At appropriate time intervals, a 400 μl aliquot of each solution was withdrawn, filtered through 0.22 m membrane filters, and diluted with a suitable amount of 50% v/v aqueous ethanol prior to UPLC analysis. Each sample withdrawn was replaced by the same volume of fresh dissolution medium. The method of drug content detection was the same as described in the preceding section. At the end of the dissolution study, the undissolved solid left in the medium was checked by DSC or XRPD for possible polymorphic transition.

Data set [3] in a line: Solid-state physical stability of Form III (annealing, ambient handling, grinding; XRPD). The class given is physicochemical. Here is the method: X-ray powder diffraction (XRPD) data were collected using a powder X-ray diffractometer (Philips, Xpert PRO, The Netherlands) equipped with a Cu radiation source operating at 40 kV and […]. Sample was uniformly packed into a custom-made aluminum holder with a 2 mm depth and scanned from 20 of 3° to 400 at a rate of 4°/min with a step size of 0.017°.
FIGS. 2A, 2B and 2C show the XRPD patterns for the three different growth zones, respectively. […] The third zone, termed Form III, was characterized by signature peaks at approximately 11.9°, 16.7°, 17.4°, 18.7°, 19.1°, 20.0°, and 21.1°, indicative of a new crystal form, which has not been reported previously. […] The morphologies of Form I and II were similar and almost indistinguishable. Form III only existed in the bulk of recrystallized ITZ (FIG. 1C). All of the three forms grew as spherulites at temperatures below 110° C. (FIG. 1D). At temperatures above 110° C., Forms I and II grew as separate faceted crystals (FIGS. 1E and 1F), whereas Form III transformed to Form II. The latter was further substantiated by annealing Form III at 100° C. and 120° C.
Samples of ITZ polymorphs recrystallized from melt on glass coverslips were first examined by HSM. […] (FIGS. 3B and 3C). Further heating led to melting of Form II at 158° C. (FIG. 3D), and eventually melting of Form I at around 167° C. (FIG. 3E). To gain further insight into the thermal behaviors and melting properties of the different polymorphs, DSC analyses were conducted and the respective thermograms are presented in FIG. 4A. Form I melted at 165.1° C., which is in excellent agreement with the melting point of the commercial ITZ form (Form I). The melting point of Form II (155.7° C.) is the same as that described previously. The measured molar enthalpy of fusion, ΔH^f, of Form II was 60.6±1.7 kJ/mol, which is less than that (ΔH^f=68.6±1.5 kJ/mol) of Form I. The molar entropy of fusion, ΔS^f, of Form II (141±4 J/mol·K) was also less than that of Form I (ΔS^f=156±4 J/mol·K). […] At low scanning rate, e.g., 10° C./min, a small exothermic peak appeared at ˜120° C. (which possibly reflects the transition of Form III to Form II), followed by an endotherm at ˜156° C., corresponding to the melting of Form II. At higher heating rates, e.g., 40° C./min, the melting endotherm of Form III started to emerge at 119.4° C., followed by a relatively small endotherm at a higher temperature, which can be attributed to the melting of recrystallized Form II from the Form III melt. Due to the co-existence of Form III and/or its melt, this Form II was seen to melt at a lower temperature than its phase pure counterpart (m.p. ˜156° C.). […]

The format of data set [4] is physicochemical. Here is the method: Solubilities of different polymorphs were determined by adding excess drug to 10 ml of 50% v/v aqueous ethanol in glass vials, followed by equilibration with occasional shaking at different temperatures (4° C., 10° C., 20° C., 25° C., 34° C., 40° C.) in a temperature-controlled incubator (Lovibond TC 135S, Tintometer GmbH, Dortmund, Germany) for 3 days (i.e., until equilibrium was reached). The solution was then filtered and the drug content was analyzed by UPLC (Agilent 1200 Infinity LC systems) using a UHPLC ZORBAX Eclipse Plus C18 column (2.1 mm×50 mm; 1.8 m). The mobile phase consisted of acetonitrile and 0.1% formic acid (60:40 v/v) eluted at 1 ml/min. Quantification was based on the peak area measurement by UV absorption at λ=260 nm. After the study, the residual solid in each glass vial was analyzed by DSC and XRPD to check for possible polymorphic transitions during the study. Solubility data were expressed in mole fraction as follows:
[formula] where n1 is the number of moles of solvent, and n2 is the number of moles of solute.
In addition to the enthalpy of fusion, equilibrium solubility and the related enthalpy of solution in a given solvent system can offer useful information on the bonding strength within the crystal lattice of a particular polymorph. […] According to the van't Hoff equation, the plot should be linear if the enthalpy of solution term in the equation is truly temperature-independent. […] The extrapolation of two linear plots yielded a transition temperature, Tr, of […] at the intersection point for the two polymorphs. The enthalpy, ΔHII→I, and entropy, ΔSII→I, of polymorphic transition from Form II to Form I were estimated to be −4470.8 J/mol and −5.7 J/mol·K from the slope of the log solubility ratio plot in FIG. 6B and from the relation, ΔSII→I=ΔHII→I/Tr (i.e., when ΔGII→I=0), respectively. The free energies of polymorphic transition, ΔGII→I, from Form II to Form I at 25° C. and 37° C., as defined by the equation, ΔGII→I=ΔHII→I−TΔSII→I, were calculated to be −2771 J/mol and −2703 J/mol, respectively. The solubility of Form II was about 2-3 fold higher than that of Form I in the temperature range studied.

The structures appear in SMILES notation. Entries after “also recorded” stand apart in the source; their conditions may differ.

Consider `CCC(C)n1ncn(-c2ccc(N3CCN(c4ccc(OC[C@H]5CO[C@](Cn6cncn6)(c6ccc(Cl)cc6Cl)O5)cc4)CC3)cc2)c1=O` (relative stereo) [ITZ, (2R,4S)-rel-1-(Butan-2-yl)-4-{4-[4-(4-{[(2R,4S)-2-(2,4-dichlorophenyl)-2-(1H-1,2,4-triazol-1-ylmethyl)-1,3-dioxolan-4-yl]methoxy}phenyl)piperazin-1-yl]phenyl}-4,5-dihydro-1H-1,2,4-triazol-5-one], for which the water-solubility in data set [1] is 1 ng/mL.

Regarding `CCC(C)n1ncn(-c2ccc(N3CCN(c4ccc(OC[C@H]5CO[C@](Cn6cncn6)(c6ccc(Cl)cc6Cl)O5)cc4)CC3)cc2)c1=O` (mixture of isomers) [Form III, itraconazole], in data set [2], the “maximum/peak drug concentration relative to that of Form I” value is listed as “about 7 fold”; the “time of peak drug concentration” value was about 15 h; the “solid form of undissolved solid at end of dissolution study (DSC and XRPD)” value (shortened to “solid form of undissolved solid”) is given as “converted to Form I”; the “initial dissolution rate (in words)” value is on record as “dissolved much more rapidly than the other two forms”. Moreover, the “phase stability on annealing (XRPD)” value in data set [3] (100° C. for 10 hours) is on record as “no such phase transition”. The “phase stability on annealing (XRPD)” value in data set [3] (120° C. for 10 hours) is “conversion to Form II”. For the same compound, the “crystal structure after grinding (XRPD)” value in data set [3] (grinding with pestle and mortar) is given as “remained unchanged in crystal structure”. The “physical stability at ambient conditions” value in data set [3] (scraping from glass coverslip for XRPD analysis) is recorded as “stable at ambient conditions”.

With `CCC(C)n1ncn(-c2ccc(N3CCN(c4ccc(OC[C@H]5CO[C@](Cn6cncn6)(c6ccc(Cl)cc6Cl)O5)cc4)CC3)cc2)c1=O` (mixture of isomers) [Form I, itraconazole], the “molar enthalpy of solution” value in data set [4] is listed as 55.8 (±2.8) kJ/mol. For the same compound, in data set [2], the “time at which concentration in dissolution medium plateaued off” value is recorded as about 10 h; the “solid form of undissolved solid” value is listed as “maintained their original crystal structures; also recorded: remained unchanged”.

On to `CCC(C)n1ncn(-c2ccc(N3CCN(c4ccc(OC[C@H]5CO[C@](Cn6cncn6)(c6ccc(Cl)cc6Cl)O5)cc4)CC3)cc2)c1=O` (mixture of isomers) [amorphous form, itraconazole], for which, in data set [2], the “solid form of undissolved solid” value is “converted to Form I”; the “initial dissolution rate (in words)” value was “increased most rapidly”. Further, in data set [2] (listed as amorphous material), the “solid form of undissolved solid” value is recorded as “converted to Form I”. Further, the “dissolved drug concentration level after initial drop” value in data set [2] (after 50 h) is listed as “equivalent to the equilibrium solubility of Form I”.

Turning to `CCC(C)n1ncn(-c2ccc(N3CCN(c4ccc(OC[C@H]5CO[C@](Cn6cncn6)(c6ccc(Cl)cc6Cl)O5)cc4)CC3)cc2)c1=O` (mixture of isomers) [Form II, itraconazole], in data set [4], the “enthalpy, ΔHII→I, of polymorphic transition from Form II to Form I” value is -1.0685 kcal/mol; the “entropy, ΔSII→I, of polymorphic transition from Form II to Form I” value is listed as −5.7 J/mol·K; the “molar enthalpy of solution” value is reported as 51.3 (±2.9) kJ/mol; the “transition temperature, Tr, of Form I and Form II” value was determined as 497.8 °C. The “solubility relative to that of Form I” value in data set [4] (3 days) is 2-3 fold. Further, in data set [2], the “maximum/peak drug concentration relative to that of Form I” value is on record as 2-3 fold; the “time at which concentration in dissolution medium plateaued off” value is on record as about 10 h; the “solid form of undissolved solid” value is “maintained their original crystal structures; also recorded: remained unchanged”.
